We go through 1 molecule from patent publication US20250302846A1, “ANTIBIOTIC COMPOSITION AND METHODS OF USE THEREOF” (THE REGENTS OF THE UNIVERSITY OF COLORADO A BODY CORPORATE, priority 2022, published 2025).

Type in all cases: cell-based
Experiment [1] relates to S. Typhimurium (SL1344 with sifB::gfp) in RAW 264.7 macrophages. In words: SAFIRE assay: bacterial accumulation (GFP) in macrophages. Particulars: Salmonella enterica, RAW264.7, 16 h, read-out: IC50 in SAFIRE. How it is done:
FIG. 1A-D. D66 is a small molecule that prevents S. Typhimurium replication and/or survival in macrophages. A). Structure of D66. B) RAW264.7 macrophage-like cells were infected with S. Typhimurium harboring a chromosomal sifB: : gfp reporter, treated with DMSO or D66 at two hours after infection, and monitored for bacterial accumulation (GFP+Macrophage Area) over 16 hours using the SAFIRE (Screen for Anti-infectives using Fluorescence microscopy of Intracellular Enterobacteriaceae) assay. The IC50 value is indicated. Mean and SD of biological duplicates with technical duplicates across 9 dilutions of D66. C, D) CFU assays were performed with RAW264.7 or HeLa cells infected with S. Typhimurium SL1344 or 14028 for two hours and treated for 16 hours with DMSO or 1.5-fold dilutions of D66, prior to lysis and plating for CFU. Symbols on the Y-axes are the CFU value from DMSO-treated samples. […]
SAFIRE and CFU assays: SAFIRE assays were performed with RAW 264.7 (TIB-71) macrophages seeded at […] in 100 μL of complete DMEM in 96-well tissue culture plates (Greiner, 655180) and incubated at 37° C. with 5% CO2. […] After 16 hours of treatment, samples were imaged on a spinning disk confocal microscope, and a MATLAB algorithm calculated bacterial accumulation (GFP fluorescence) within macrophages, as defined by DAPI (DNA) and MitoTracker Red, a vital dye for mitochondrial voltage. […]

Another experiment deals with E. coli (K-12). In words: Minimum inhibitory concentration determination in broth. To be noted: for MIC50: Escherichia coli. As for the experimental part:
(§1) Bacterial Strains: S. Typhimurium (SL1344), S. Typhimurium (14028s, ATCC), S. Typhimurium ΔacrAB (ALR1257), E. coli (K-12 derivative BW25113 (wild-type)), E. coli K-12 AtolC (JP313 delta tolC; also called AD3644 and JLD1285).
(§2) Minimum inhibitory concentration determination: Overnight LB-grown cultures were diluted in LB or MHB to an optical density (OD600) of 0.01 and distributed into polystyrene 96-well flat-bottom plates (Greiner, 655185). […] The final DMSO concentration was at or below 2%. Where indicated, PMB [0.5 μg/mL] was added prior to D66. Plates were grown at 37° C. with shaking and OD600 was monitored (BioTek Synergy H1 or BioTek Eon). MICs were defined as the concentration at which 95% of growth was inhibited (OD600).

The test system of another experiment is E. coli K-12 ΔtolC. The experiment is described as above. Particulars: for MIC50: Escherichia coli. How it is done:
as §1, §2

A further experiment has as its system S. Typhimurium ΔacrAB. Described as above. Particulars: for MIC50: Salmonella enterica, TYPHIMURIUM
How it is done:
as §1, §2

Several values for one entry are separate records, joined by “and”; a condition that tells them apart may be missing. Identical values can stand only once. Like-named read-outs stand apart in the source and are kept apart here.

Regarding `O=C(Nc1cc(Cl)cc(Cl)c1)N1CCCN(Cc2ccccc2)CC1` [D66], the IC50 in experiment [1] is 6 ± 0.5 µM. In addition, the MIC50 with E. coli (K-12) (LB, read-out: MIC50 in LB) was > 150 µM and > 57 µg/mL; with E. coli (K-12) (MHB, read-out: MIC50 in MHB), above 150 µM; in the experiment on E. coli K-12 ΔtolC (read-out: MIC50 in LB), 47 µM and 18 µg/mL; in the experiment on E. coli K-12 ΔtolC (read-out: MIC50 in MHB), 36 ± 1 µM; in the experiment with S. Typhimurium ΔacrAB (read-out: MIC50 in LB), 128 µM and 48 µg/mL; in the experiment on S. Typhimurium ΔacrAB (read-out: MIC50 in MHB) it was 81 ± 6 µM. The “cMIC95 in LB” value in the experiment with E. coli (K-12) (LB) was above 150 µM; with E. coli K-12 ΔtolC (E. coli K-12 ΔtolC, LB), 52 µM; in the experiment on S. Typhimurium ΔacrAB (S. Typhimurium ΔacrAB, LB) it was 142 µM. Besides, the “cMIC95 in MHB” value with E. coli (K-12) (MHB) is above 150 µM; with E. coli K-12 ΔtolC (E. coli K-12 ΔtolC, MHB), 43 µM; with S. Typhimurium ΔacrAB (S. Typhimurium ΔacrAB, MHB), 116 µM.
